In patent US9375404B2 (Duchesnay Inc., priority 2012, dated 2016):

Assay: clinical
Conditions: human, in vivo
Procedure: Data are from bioavailability studies in healthy volunteers. 5 mg: 12 healthy men, 20 mg: 42 healthy women, 25 mg: 12 healthy women, 40 mg: 18 healthy women;

Structure (SMILES): Cc1ncc(COP(=O)(O)O)c(C=O)c1O [PLP, pyridoxal 5-phosphate]
- availability among pyridoxine metabolites: most available active metabolite
- dose vs. Cmax relationship (linearity of pharmacokinetics): increase more than expected
- half-life: 60 h
- persistence in the systemic circulation: remaining in the systemic circulation the longest

Structure (SMILES): CN(C)CCOC(C)(c1ccccc1)c1ccccn1 (centres unmarked) [doxylamine, reference compound]
- half-life (half-life): ~12 h

Structure (SMILES): Cc1ncc(CO)c(C=O)c1O [pyridoxal]
- bioavailability at steady-state: significant bioavailability increases
- change in Cmax and AUC: significant increase
- change in T1/2: significant lengthening
- dose vs. Cmax relationship (linearity of pharmacokinetics): increase more than expected

Structure (SMILES): Cc1ncc(CO)c(CO)c1O [pyridoxine, reference compound]
- amount unchanged in blood: about 1%
- availability with increasing dose: availability is not increased
- dose vs. Cmax relationship (linearity of pharmacokinetics): Cmax increases less than expected
- inter subject and inter study variations: significantly higher
- metabolism: rapidly metabolized
